Each structure is given as a SMILES string.

Series [1] addresses T1, USP14 (Homo sapiens, UniProt P54578). Put plainly: SPR binding to recombinant USP14, NTA chip. The source says: (§1) A BIACORE T200 was used for characterization of the interaction between compounds and USP14, UCHL5 and 26S proteasome. The standard BIACORE protocols were used for NTA chip (Ni/His-tag immobilization) and CM7 chip for compound interaction studies with slight modification described below. The x6 his-tagged USP14 and UCHL5 proteins were coupled to a Series S NTA BIACORE sensor chip in the BIACORE T200 using the his-tags for adherence of the proteins to the surface and an amine coupling procedure for covalent attachment to the chip surface. NTA chip was cleaned using three 500 μM EDTA injections followed by an injection of 500 μM Ni^2+ and activation of the chip surface with EDC/NHS injection according to BIACORE standard methods. Each chip has four separate areas, which were handled separately during the immobilization procedure. Area 1 was used as blank reference surface, area 2–4 was coupled with investigated recombinant proteins or complexes. Proteins were diluted in running buffer (10 mM HEPES, 150 mM NaCl, 0,005% Tween 20) to typically 10 μg/ml before injection(1 mL) over the prepared surfaces. […] The immobilization procedure was followed by injections of compound concentration series of VLX1570. Concentration series were set up with ×3 and ×2 dilution series ending with the highest concentration 200 μM for the consecutive measurements of changes of refractive index. Compounds were kept in stock concentrations of 10 mM in DMSO and diluted in running buffer down to the test concentration. Rmax and KD were calculated using Langmuir binding isotherms as provided in the Biacore software.
On the technique in general: Surface plasmon resonance follows binding to a sensor surface in real time, without labels.

The target in series [2] is T1, USP14. Put plainly: SPR binding to recombinant USP14, CM7 chip. The conditions noted are these: protein from Karolinska Institute Protein Science Facility, read-out: USP14(K) KD.
From the text: as §1, with “Concentration series were set up with ×3 and ×2 dilution series ending with the highest concentration 200 μM for the consecutive measurements of changes of refractive index. Compounds were kept in stock concentrations of 10 mM in DMSO and diluted in running buffer down to the test concentration.” left out

The target in a further series is 26S proteasome (Homo sapiens, UniProt P54578+Q9Y5K5). Description: SPR binding to 26S proteasomes, CM7 chip.
Chain of 26S proteasome (P54578 whole entry, one chain of several): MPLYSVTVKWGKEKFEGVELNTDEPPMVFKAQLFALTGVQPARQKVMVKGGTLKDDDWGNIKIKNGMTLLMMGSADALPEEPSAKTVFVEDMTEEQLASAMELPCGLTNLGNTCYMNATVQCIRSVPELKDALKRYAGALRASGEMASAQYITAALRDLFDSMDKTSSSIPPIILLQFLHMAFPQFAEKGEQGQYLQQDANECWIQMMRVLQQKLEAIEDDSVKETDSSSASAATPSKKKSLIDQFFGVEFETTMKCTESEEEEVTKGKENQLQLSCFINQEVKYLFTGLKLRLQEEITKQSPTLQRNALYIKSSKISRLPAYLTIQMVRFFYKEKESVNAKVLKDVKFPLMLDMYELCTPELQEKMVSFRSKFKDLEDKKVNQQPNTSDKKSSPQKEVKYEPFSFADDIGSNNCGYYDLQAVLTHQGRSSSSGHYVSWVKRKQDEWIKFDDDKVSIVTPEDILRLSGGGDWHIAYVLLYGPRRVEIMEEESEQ
Chain of 26S proteasome (Q13200 whole entry partner, one chain of several): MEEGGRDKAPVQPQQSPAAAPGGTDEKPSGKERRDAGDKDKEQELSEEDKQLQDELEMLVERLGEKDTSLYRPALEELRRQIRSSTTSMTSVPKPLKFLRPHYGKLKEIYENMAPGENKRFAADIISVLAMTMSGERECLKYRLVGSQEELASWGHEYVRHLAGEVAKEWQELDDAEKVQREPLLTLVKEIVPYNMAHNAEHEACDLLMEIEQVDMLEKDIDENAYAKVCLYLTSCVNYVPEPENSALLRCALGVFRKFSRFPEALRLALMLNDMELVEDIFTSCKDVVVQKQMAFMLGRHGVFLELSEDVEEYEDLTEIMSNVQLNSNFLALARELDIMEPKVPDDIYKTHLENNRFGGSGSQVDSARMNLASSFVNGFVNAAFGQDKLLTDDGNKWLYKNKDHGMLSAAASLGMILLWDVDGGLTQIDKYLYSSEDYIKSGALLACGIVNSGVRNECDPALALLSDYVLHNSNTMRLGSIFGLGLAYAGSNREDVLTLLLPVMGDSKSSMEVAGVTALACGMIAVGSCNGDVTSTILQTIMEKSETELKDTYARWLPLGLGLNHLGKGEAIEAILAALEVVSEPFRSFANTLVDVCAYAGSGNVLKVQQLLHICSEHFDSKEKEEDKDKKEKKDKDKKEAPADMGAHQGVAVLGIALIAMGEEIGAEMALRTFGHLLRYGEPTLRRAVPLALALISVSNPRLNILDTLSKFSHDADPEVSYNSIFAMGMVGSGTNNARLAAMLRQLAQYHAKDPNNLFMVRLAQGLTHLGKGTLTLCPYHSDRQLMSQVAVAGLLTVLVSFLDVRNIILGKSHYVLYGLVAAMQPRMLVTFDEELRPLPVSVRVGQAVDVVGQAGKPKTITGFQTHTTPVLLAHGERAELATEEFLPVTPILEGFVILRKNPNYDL
From the text: as §1, with “Concentration series were set up with ×3 and ×2 dilution series ending with the highest concentration 200 μM for the consecutive measurements of changes of refractive index. Compounds were kept in stock concentrations of 10 mM in DMSO and diluted in running buffer down to the test concentration.” left out

For the next series, the system named is RPMI8226. Description: MTT antiproliferative assay, RPMI8226. It counts as cell-based. Conditions: Homo sapiens, RPMI-8226, 72 hours. As for the experimental part: (§2) Cell viability was monitored by the MTT (3-(4,5-dimethylthiazol-2-yl)-2,5-diphenyltetrazolium bromide) assay. For the MTT assay, cells were suspended at 5 × 10^5 cells/ml, and 100 μl aliquots were dispended into 96-well microtiter plates and exposed to drugs as described using DMSO control. At the end of incubations, 10 μl of a stock solution of 5 mg/ml MTT (3-(4,5-dimethylthiazol-2-yl)-2,5-diphenyltetrazolium bromide), was added into each well, and the plates were incubated 4 hours at 37 °C. Formazan crystals were dissolved with 100 μl of 10% SDS/10 mM HCl solution overnight at 37 °C. Since MTT assays are affected by mitochondrial activity, and since OXPHOS is affected by VLX1570 (unpublished observation), we used the acid phosphatase method[49] to determine cell viability in some experiments. After washing twice with PBS, cells were lysed in 100 μl of 0.1 M sodium acetate, 0,1% Triton X-100, p-nitrophenylphosphate (Pierce Biotechnology Inc, Rockford, IL) and incubated for 90 min at 37 °C. At the end of the incubation, 10 μl NaOH was added to each well and A405 was determined.
(In general: Formazan colour is commonly taken as a measure of viable cells.)

In the next series the test system is OPM-2-BZ^R. Description: MTT antiproliferative assay, OPM-2-BZR. In kind it is cell-based. The conditions noted are these: Homo sapiens, OPM-2-BZ^R (bortezomib resistant), 72 hours. As for the experimental part: as §2
Series [3] relates to 26S proteasome and immunoproteasome. Put plainly: Proteasome and immunoproteasome proteolytic activity in OPM-2 cells. It counts as cell-based, human. The conditions noted are these: 0.5 μM, 3 hours.
Another series concerns OPM-2 cells. Description: 3H-VLX1570 retention after wash-out in OPM-2 cells. It counts as cell-based, human. The conditions noted are these: 1 hour exposure, 17 hours in drug-free medium.
The next series deals with OPM-Bz^R cells. Description: 3H-VLX1570 cellular uptake, OPM-Bz^R versus parental cells. Conditions: OPM-Bz^R cells compared to parental cells.
Series [4] deals with T1, USP14. Put plainly: Ub-VS labeling of lysates of exposed OPM-2 cells, USP14. Set-up: endogenous in cells; host or cells: OPM-2 multiple myeloma cells. Conditions: 0.5 μM, 3 hours. It counts as cell-based. As for the experimental part: (§3) Cell extract proteins were resolved by Tris-Acetate PAGE gels (Invitrogen, Carlsbad, CA) and transferred onto a polyvinylidene difluoride (PVDF) membrane for western blotting. For Ub-VS labeling, we lysed cell pellets from control or treated cells with buffer (50 mM HEPES pH 7.4, 250 mM sucrose, 10 mM MgCl2, 2 mM ATP, 1 mM DTT and 1%NP-40) on ice for 30 min and removed debris by centrifugation. We labeled 25 μg of protein with 1 μM Ub-VS for 30 min at 37 °C. We resolved samples by SDS-PAGE and performed immunoblotting. For HA-Ub-VS labeling, we pretreated purified 19S (5 nM) with DMSO or 2.5, 5, 10, 15 or 25μM 1570 for 10 min at room temperature, which followed with labeling with 1 μM HA-Ub-VS for 30 min at 37 °C and immunoblotting.

The next series addresses T2, UCHL5 (Homo sapiens, UniProt Q9Y5K5).
T2 sequence (Q9Y5K5 1-329): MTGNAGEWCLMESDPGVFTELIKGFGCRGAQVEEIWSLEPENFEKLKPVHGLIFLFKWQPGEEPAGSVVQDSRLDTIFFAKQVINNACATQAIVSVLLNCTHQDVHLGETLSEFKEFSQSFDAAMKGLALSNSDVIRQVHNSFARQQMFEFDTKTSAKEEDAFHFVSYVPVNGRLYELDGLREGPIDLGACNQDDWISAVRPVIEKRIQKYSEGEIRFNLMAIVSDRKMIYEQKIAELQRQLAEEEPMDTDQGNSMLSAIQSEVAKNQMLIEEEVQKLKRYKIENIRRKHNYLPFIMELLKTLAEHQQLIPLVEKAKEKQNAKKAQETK
Put plainly: Ub-VS labeling of lysates of exposed OPM-2 cells, UCHL5. In kind it is cell-based. On the set-up: endogenous in cells; host or cells: OPM-2 multiple myeloma cells. The conditions noted are these: 0.5 μM, 3 hours. The procedure: as §3

T1 sequence (P54578 whole entry): as the sequence (P54578 whole entry, one chain of several) above

The Kd is the concentration at which binding is half-saturated. Broadly, the IC50 is the concentration needed to halve the response being measured. The low end stands for inhibition by little substance, the high end for a need for much substance. For `C=CC(=O)N1CC/C(=C\c2ccc(F)c([N+](=O)[O-])c2)C(=O)/C(=C/c2ccc(F)c([N+](=O)[O-])c2)C1` [VLX1570], the dissociation constant Kd on USP14 [1] (NTA chip, protein from Karolinska Institute Protein Science Facility, read-out: USP14(K) KD) was 18 µM; at USP14 [1] (NTA chip, protein from ProSpec, read-out: USP14(P) KD), 8.1 µM; on USP14 [1] (NTA chip, protein from Ubiquigent, read-out: USP14(U) KD) it was 1.5 µM; on USP14 [1] (two different sources of recombinant protein, Ni2+-histidine immobilisation, read-out: dissociation constant (KD) for binding to recombinant USP14) it was 1.5 to 18 µM; on USP14 [2], 35 µM. Besides, the entries for the “VLX1570 binding Relative RU × 100 +/− S.D.” value at 26S proteasome (immobilised 26S proteasome) and on 26S proteasome (immobilised 26S proteasome pre-incubated with Ub-VS) were 0.21 ± 0.09 and 0.04 ± 0.01, respectively. For the same compound, the half-inhibitory concentration (IC50) came out at 74 ± 2 nM in the series with RPMI8226 and 191 ± 1 nM with OPM-2-BZ^R. In addition, the “chymotryptic, tryptic and caspase-like activity of 26S proteasome and chymotryptic activity of immunoproteasome” value in [3] was “no change”. In the series with OPM-2 cells, the “drug associated with the cells after wash-out” value is recorded as “Approximately 70%”. Moreover, the “cellular uptake of radiolabeled drug” value in the series with OPM-Bz^R cells is listed as “decreased uptake”. In addition, the “inhibition of USP14 activity in exposed cells” value against USP14 [4] is given as “Inhibition of USP14 activity could be demonstrated”. Moreover, the “UCHL5 inhibition in exposed cells” value at UCHL5 is listed as “weak in comparison”.
